Measured values published in article PMC7168207, “Dibasic Derivatives of Phenylcarbamic Acid as Prospective Antibacterial Agents Interacting with Cytoplasmic Membrane” (Antibiotics, 2020).

Columns and labels:
Test in all cases: synergy with antibiotics (FIC index, checkerboard)
Assay type in all cases: cell-based, Enterococcus faecalis
VRE 342B = conditions: VRE 342B
Description: (§1) Representatives from various classes were chosen in order to study the potential difference in synergistic activity according to the diverse mechanisms of action and resistance of these drugs. The method of minimal fractional inhibitory concentration (FIC) index (FICI) in a microtitration plate was used. FICI ≤ 0.5 means synergy; 0.5 < FICI < 1 means additivity; 1 ≤ FICI < 4 means indifference; and FICI ≥ 4 means antagonism.
(§2) For synergy effect study, a method of fractional inhibitory concentration was used. […] Raw H was used for the evaluation of MIC(A); column 12 was used for evaluation of MIC(B). The plate was inoculated by the bacterial suspension to reach final concentration of 5 × 10^5 CFU/mL in the wells. The fractional inhibitory concentration (FIC) index was calculated using the concentrations in the first nonturbid (clear) well found in each row and column along the turbidity/nonturbidity interface. To interpret the combined effect, the lowest FICI was used. A ΣFIC ≤ 0.5 means synergy; 0.5 < ΣFIC < 1 means additivity; 1 ≤ ΣFIC < 4 means indifference; and ΣFIC ≥ 4 means antagonism. The tests were made in duplicate, and the results were averaged.

VRE 368 = conditions: Enterococcus, VRE, VRE 368; tested compound/antibiotic; read-out: MIC of each antibacterial drug alone observed in the synergy experiment
Description: as §1, §2

VRE 725B = conditions: Enterococcus
Description: as §1
The used VRE strains were isolated from American crows by Oravcova et al., and their genetic profiles were characterized. All the VRE strains were carrying genes vanA, tetM, and ermB. Strains VRE 368 and VRE 725B carried gene aac, which provided acquired aminoglycoside resistance.
as §2

- MIC (VRE 342B; Enterococcus, tested compound/antibiotic, read-out: MIC of each antibacterial drug alone observed in the synergy experiment): 32 µg/mL
- MIC (VRE 368): 64 µg/mL
- MIC (VRE 725B): > 2000 µg/mL
Structure (SMILES): CNC(C)C1CCC(N)C(OC2C(N)CC(N)C(OC3OCC(C)(O)C(NC)C3O)C2O)O1 (stereo not shown) [GEN, gentamicin, reference compound]
- concentrations of the tested compound/clinically used antibiotic providing additivity or synergy (VRE 342B; in the combination of that line): 8 µg/mL
